Reference: patent US9073897B2, “Cyclic sulfonium salt, process for production of same, and α-glucosidase inhibitor comprising same” (KINKI UNIVERSITY, priority 2011, dated 2015)

Tests used:
Assay type in all cases: biochemical
[1] = molecular target: T1, Sucrase (Rattus norvegicus, UniProt P23739); assay: α-glucosidase inhibition, rat small intestinal brush border membrane, sucrose substrate; conditions: rat small intestine brush border membrane; sucrose (74 mM); 0.1M maleate buffer (pH6.0); 37° C. for 30 minutes
T1 construct: Brush border membrane follicles of rat's small intestine were prepared; from tissue; host or cells: rat small intestine brush border membrane vesicles
T1 sequence (P23739 whole entry): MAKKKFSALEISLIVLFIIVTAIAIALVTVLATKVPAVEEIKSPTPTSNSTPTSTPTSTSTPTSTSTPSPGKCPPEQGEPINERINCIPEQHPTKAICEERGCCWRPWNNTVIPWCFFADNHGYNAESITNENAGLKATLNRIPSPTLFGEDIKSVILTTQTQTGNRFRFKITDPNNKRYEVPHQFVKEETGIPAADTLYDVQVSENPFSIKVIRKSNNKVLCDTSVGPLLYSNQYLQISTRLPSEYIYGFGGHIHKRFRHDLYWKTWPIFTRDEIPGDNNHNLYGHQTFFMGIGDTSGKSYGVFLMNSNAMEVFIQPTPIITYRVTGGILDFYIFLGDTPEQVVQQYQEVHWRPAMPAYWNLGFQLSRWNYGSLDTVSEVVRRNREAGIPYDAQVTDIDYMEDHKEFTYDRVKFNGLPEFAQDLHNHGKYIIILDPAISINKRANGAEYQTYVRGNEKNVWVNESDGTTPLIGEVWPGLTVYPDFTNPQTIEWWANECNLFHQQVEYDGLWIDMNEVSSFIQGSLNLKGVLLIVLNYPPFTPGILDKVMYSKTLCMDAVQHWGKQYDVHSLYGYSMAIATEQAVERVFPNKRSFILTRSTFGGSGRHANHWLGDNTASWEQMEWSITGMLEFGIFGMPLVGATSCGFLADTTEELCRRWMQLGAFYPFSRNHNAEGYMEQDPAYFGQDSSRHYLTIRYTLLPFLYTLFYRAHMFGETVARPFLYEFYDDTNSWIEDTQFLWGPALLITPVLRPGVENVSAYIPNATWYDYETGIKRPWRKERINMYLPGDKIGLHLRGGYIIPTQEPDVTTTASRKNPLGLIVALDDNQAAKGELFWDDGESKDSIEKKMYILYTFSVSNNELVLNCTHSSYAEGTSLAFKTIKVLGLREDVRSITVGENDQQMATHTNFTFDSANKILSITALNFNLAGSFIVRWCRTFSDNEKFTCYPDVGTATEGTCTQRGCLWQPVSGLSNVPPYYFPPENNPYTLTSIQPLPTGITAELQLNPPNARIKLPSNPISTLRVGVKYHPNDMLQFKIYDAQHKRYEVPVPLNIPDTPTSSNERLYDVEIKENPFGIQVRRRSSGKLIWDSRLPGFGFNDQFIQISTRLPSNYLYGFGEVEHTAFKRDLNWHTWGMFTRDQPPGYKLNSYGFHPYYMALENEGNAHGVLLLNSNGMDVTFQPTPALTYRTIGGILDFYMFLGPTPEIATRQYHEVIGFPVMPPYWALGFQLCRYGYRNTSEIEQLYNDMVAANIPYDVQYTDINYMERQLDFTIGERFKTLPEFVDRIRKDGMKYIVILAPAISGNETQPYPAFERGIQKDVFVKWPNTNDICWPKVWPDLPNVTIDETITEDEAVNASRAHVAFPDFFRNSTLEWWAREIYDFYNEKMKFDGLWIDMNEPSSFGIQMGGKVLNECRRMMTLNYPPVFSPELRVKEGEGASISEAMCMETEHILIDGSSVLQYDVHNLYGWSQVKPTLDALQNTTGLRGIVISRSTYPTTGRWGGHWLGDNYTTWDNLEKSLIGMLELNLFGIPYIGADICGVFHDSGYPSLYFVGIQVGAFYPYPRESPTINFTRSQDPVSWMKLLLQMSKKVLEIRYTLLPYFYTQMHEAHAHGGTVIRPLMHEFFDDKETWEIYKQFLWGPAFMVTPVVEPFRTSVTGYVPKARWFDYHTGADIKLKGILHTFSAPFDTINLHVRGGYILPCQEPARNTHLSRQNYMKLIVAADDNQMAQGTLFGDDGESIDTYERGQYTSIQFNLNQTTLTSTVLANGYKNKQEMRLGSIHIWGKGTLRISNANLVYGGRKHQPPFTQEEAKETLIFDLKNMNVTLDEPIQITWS
Method: (§1) Brush border membrane follicles of rat's small intestine were prepared in accordance with the literature (Kessler, M. et al., Biochem. Biophys. Act, 1978, 506, 136), and a suspension of the follicles in 0.1M maleate buffer (pH6.0) was used as an intraintestinal α-glucosidase (maltase, sucrose and isomaltase).
(§2) A compound to be tested was dissolved in methylsulfoxide (DMSO) and the resulting solution was diluted with 0.1M maleate buffer to prepare a solution of the testing compound (DMSO concentration: 10%). […] A 50% inhibitory concentration (IC50) was computed from the measured values.

[2] = molecular target: T2, Isomaltase (Rattus norvegicus, UniProt P23739); assay: α-glucosidase inhibition, rat small intestinal brush border membrane, isomaltose substrate; conditions: rat small intestine brush border membrane; isomaltose (74 mM); 0.1M maleate buffer (pH6.0); 37° C. for 30 minutes
T2 construct: Brush border membrane follicles of rat's small intestine were prepared; from tissue; host or cells: rat small intestine brush border membrane vesicles
T2 sequence (P23739 whole entry): as above
Method: as §1, §2

[3] = molecular target: Maltase; assay: α-glucosidase inhibition, rat small intestinal brush border membrane, maltose substrate; conditions: rat small intestine brush border membrane; maltose (74 mM); 0.1M maleate buffer (pH6.0); 37° C. for 30 minutes
Method: as §1
A compound to be tested was dissolved in methylsulfoxide (DMSO) and the resulting solution was diluted with 0.1M maleate buffer to prepare a solution of the testing compound (DMSO concentration: 10%). A solution of a substrate (sucrose (74 mM), maltose (74 mM) or isomaltose (74 mM, […]) in the maleate buffer, a solution (25 μl) of the testing compound and the enzyme solution (25 μl) were mixed and the resulting solution was incubated at 37° C. for 30 minutes. Immediately after incubation, the resulting solution was heated by boiling water to terminate the reaction and mixed with water (150 μl). The concentration of glucose was measured by glucose oxidase method. The final concentration of DMSO in the testing solution was set to 2.5%, and no influence of DMSO on an inhibitory activity was detected. A 50% inhibitory concentration (IC50) was computed from the measured values.

Structure (SMILES)	IC50 [1] [µM]	IC50 [2] [µM]	α-glucosidase (IC50) Maltase [3] [µg/mL]	α-glucosidase (IC50) Sucrase [1] [µg/mL]	α-glucosidase (IC50) Isomaltase [2] [µg/mL]
CCOC(CO)C(O)C[S+]1CC(O)C(O)C1CO [Compound (Ib), 1,4-Dideoxy-1,4-[(R)-[4-deoxy-2-O-ethyl-D-erythritol-4-yl]episulfoniumylidene]-D-arabitol chloride]	0.423	0.953	–	–	–
CCCCCCCOC(CO)C(O)C[S+]1CC(O)C(O)C1CO [Compound (Id), 1,4-Dideoxy-1,4-[(R)-[4-deoxy-2-O-(1-heptyl)-D-erythritol-4-yl]episulfoniumylidene]-D-arabitol chloride]	0.679	0.707	0.8	–	–
OCC(OCc1cccc(Cl)c1)C(O)C[S+]1CC(O)C(O)C1CO [Compound (Il), 1,4-Dideoxy-1,4-[(R)-[2-O-(m-chlorobenzyl)-4-deoxy-D-erythritol-4-yl]episulfoniumylidene]-D-arabitol chloride]	2.11	0.816	0.53	–	–
OCC(OCc1ccccc1Cl)C(O)C[S+]1CC(O)C(O)C1CO [Compound (Ik), 1,4-Dideoxy-1,4-[(R)-[2-O-(o-chlorobenzyl)-4-deoxy-D-erythritol-4-yl]episulfoniumylidene]-D-arabitol chloride]	0.237	0.684	0.31	–	–
OCC(OCc1ccc(C(F)(F)F)cc1)C(O)C[S+]1CC(O)C(O)C1CO [Compound (Is), 1,4-Dideoxy-1,4-[(R)-[4-deoxy-2-O-(p-trifluoromethylbenzyl)-D-erythritol-4-yl]episulfoniumylidene]-D-arabitol chloride]	1.35	0.919	0.98	–	–
OCc1ccc(COC(CO)C(O)C[S+]2CC(O)C(O)C2CO)cc1 [Compound (Iw), 1,4-Dideoxy-1,4-[(R)-[4-deoxy-2-O-(p-hydroxymethyl)benzyl)-D-erythritol-4-yl]episulfoniumylidene]-D-arabitol chloride]	2.13	0.799	1	–	–
COC(CO)C(O)C[S+]1CC(O)C(O)C1CO [Compound (Ia), 1,4-Dideoxy-1,4-[(R)-[4-deoxy-2-O-methyl-D-erythritol-4-yl]episulfoniumylidene]-D-arabitol chloride]	1.71	1.45	5.3	–	–
CC(C)(C)COC(CO)C(O)C[S+]1CC(O)C(O)C1CO [Compound (If), 1,4-Dideoxy-1,4-[(R)-[4-deoxy-2-O-neopentyl-D-erythritol-4-yl]episulfoniumylidene]-D-arabitol chloride]	0.277	0.86	0.3	–	–
CCCCCOC(CO)C(O)C[S+]1CC(O)C(O)C1CO [Compound (Ic), 1,4-Dideoxy-1,4-[(R)-[4-deoxy-2-O-(1-pentyl)-D-erythritol-4-yl]episulfoniumylidene]-D-arabitol chloride]	1.54	1.44	1.52	–	–
OCC(OCc1ccc(Cl)cc1)C(O)C[S+]1CC(O)C(O)C1CO [Compound (Im), 1,4-Dideoxy-1,4-[(R)-[2-O-(p-chlorobenzyl)-4-deoxy-D-erythritol-4-yl]episulfoniumylidene]-D-arabitol chloride]	1.9	1.79	0.89	–	–
CCCCCCCCCCCCCOC(CO)C(O)C[S+]1CC(O)C(O)C1CO [Compound (Ie), 1,4-Dideoxy-1,4-[(R)-[4-deoxy-2-O-(1-tridecyl)-D-erythritol-4-yl]episulfoniumylidene]-D-arabitol chloride]	2.95	2.17	1.04	–	–
F[B-](F)(F)F.OC[C@H](OCc1ccccc1)[C@H](O)C[S@+]1C[C@@H](O)[C@H](O)[C@H]1CO [Compound (Ig) (X = BF4), 1,4-dideoxy-1,4-[(R)-[2-O-benzyl-4-deoxy-D-erythritol-4-yl]episulfoniumylidene]-D-arabitol tetrafluoroborate]	–	–	0.44	0.32	0.12
Cc1cccc(COC(CO)C(O)C[S+]2CC(O)C(O)C2CO)c1 [Compound (Ii), 1,4-Dideoxy-1,4-[(R)-[4-deoxy-2-O-(m-methylbenzyl)-D-erythritol-4-yl]episulfoniumylidene]-D-arabitol chloride]	3.62	0.974	0.84	–	–
OCC(CO)N[C@H]1C[C@](O)(CO)[C@@H](O)[C@H](O)[C@H]1O [voglibose, reference compound]	0.823	7.86	–	–	–
O=S(=O)([O-])OC(CO)C(O)C[S+]1CC(O)C(O)C1CO (stereo not shown) [Salacinol, salacinol, reference compound]	4.79	3.89	5.2	–	–
Cc1ccc(COC(CO)C(O)C[S+]2CC(O)C(O)C2CO)cc1 [Compound (Ij), 1,4-Dideoxy-1,4-[(R)-[4-deoxy-2-O-(p-methylbenzyl)-D-erythritol-4-yl]episulfoniumylidene]-D-arabitol chloride]	3.06	1.89	0.86	–	–
Cc1ccccc1COC(CO)C(O)C[S+]1CC(O)C(O)C1CO [Compound (Ih), 1,4-Dideoxy-1,4-[(R)-[4-deoxy-2-O-(o-methylbenzyl)-D-erythritol-4-yl]episulfoniumylidene]-D-arabitol chloride]	1.14	1.34	0.66	–	–
O=[N+]([O-])c1ccc(COC(CO)C(O)C[S+]2CC(O)C(O)C2CO)cc1 [Compound (Iv), 1,4-Dideoxy-1,4-[(R)[4-deoxy-2-O-(p-nitrobenzyl)-D-erythritol-4-yl]episulfoniumylidene]-D-arabitol chloride]	0.973	0.589	0.68	–	–
OCC(OCc1ccccc1)C(O)C[S+]1CC(O)C(O)C1CO [Compound (Ig) (X = Cl), 1,4-Dideoxy-1,4-[(R)-[2-O-benzyl-4-deoxy-D-erythritol-4-yl]episulfoniumylidene]-D-arabitol chloride]	1.59	0.579	0.58	–	–
